In US20230285598A1, “SULFOXONIUM YLIDE DERIVATIVES AS PROBES FOR CYSTEINE PROTEASE” (Takeda Pharmaceutical Company Limited, priority 2018, published 2023):
Values belong to the compound of their own block, whether it stands above or below them.

Experiments:
cathepsin X [1] = molecular target: T1, cathepsin X (Mus musculus, UniProt Q9WUU7); test: Probe labeling of mouse splenic lysates (wildtype or cathepsin X-deficient), in-gel fluorescence; type: biochemical; details: probe 1 µM for 20 minutes
Method: (§1) issues were harvested from healthy mice and snap frozen. At the time of analysis, lysis buffer was added at 10x volume:weight, and tissues were sonicated on ice. Cleared lysates were labeled with the indicated probe and analyzed as above.
In Example 4, the ability of sCy5-Val-SY to label cathepsin X in mouse splenic lysates (from wildtype mice or cathepsin X-deficient mice) was tested (probe addition at 1 µM for 20 minutes).

cathepsin X [2] = molecular target: T1, cathepsin X; test: In vivo probe labeling in mice (intravenous), tissues analyzed by fluorescent SDS-PAGE; details: intravenous 50 nmol, two hours of circulation
Method: For in vivo labeled tissues, mice were first injected intravenously via the tail vein with sCy5-Nle-SY, BMV109, or sCy5-Nle-AOMK (50 nmol in 100 µl 10% DMSO/PBS or vehicle control). Tissues were harvested and analyzed as above except without further probe addition.
In Example 10, the probe sCy5-Nle-SY, vehicle control/no probe (NP) or BMV109 were injected into mice intravenously. After two hours of circulation, tissues were harvested, lysed, and analyzed for probe labeling by fluorescent SDS-PAGE.
In Example 12, the AOMK probe sCy5-Nle-AOMK was tested in vivo and its labeling in tissues was analyzed. The probe was injected into mice intravenously. After two hours of circulation, tissues were harvested, lysed, and analyzed for probe labeling by fluorescent SDS-PAGE.

cathepsin S = molecular target: T2, cathepsin S (Mus musculus, UniProt O70370); test: Inhibition in live RAW264.7 cells, residual activity by sCy5-Val-SY labeling; type: cell-based; details: 100 µM overnight pre-treatment, compared to controls
T2 construct: Live RAW264.7 cells were pre-treated with Boc-Val-SY (0, 10 or 100 µM) overnight; host or cells: RAW264.7

cathepsin X [3] = molecular target: T1, cathepsin X; test: as above; type: cell-based; design: protein lysates prepared from RAW264.7 cells; host or cells: RAW264.7; details: 100 µM overnight pre-treatment, compared to controls
Method: To test the ability of sulfoxonium ylide compounds to act as cathepsin inhibitors, an unlabeled, boc-protected version of Val-SY, i.e. tert-butyl (S)-(1-(dimethyl(oxo)-λ ^6-sulfanylidene)-4-methyl-2-oxopentan-3-yl)carbamate (SJM-724-24) was used. Live RAW264.7 cells were pre-treated with Boc-Val-SY (0, 10 or 100 µM) overnight. Residual cathepsin X activity was measured by incubating the live cells with sCy5-Val-SY for two hours. Cells were lysed and labeled proteins were detected by in-gel fluorescence.

cathepsin X [4] = molecular target: T1, cathepsin X; test: Probe labeling of kidney lysates, in-gel fluorescence; type: biochemical; details: 0.1-5 µM for 20 minutes
Method: as §1
In Example 7, sulfoxonium ylide probes as prepared in accordance with Example 1 were tested in kidney lysates and the results compared to BMV109. The sulfoxonium ylide probes (and BMV109) were each added with increasing probe concentrations of 0.1 µM, 0.5 µM, 1 µM and 5 µM for 20 minutes.

cathepsin X [5] = molecular target: T1, cathepsin X; test: Probe labeling of living RAW264.7 cells, in-gel fluorescence; type: cell-based; design: protein lysates prepared from RAW264.7 cells; host or cells: RAW264.7; details: Example 8; 0.1-5 µM for 2 hours
Method: AW cells or MDA-MB-231 ^HM cells were plated in 12-well plates. Where indicated, MDV-590 or vehicle was added at 10 µM from a 10 mM DMSO stock for overnight incubation. When the cell density reached 80%, the indicated probes were added at the indicated concentrations from a 1000x DMSO stock and allowed to incubate for the indicated time. Media was then removed and replaced with PBS. The cells were then scraped and transferred to tubes, and lysis and SDS-PAGE analysis were carried out as above, except skipping the probe addition step. […]
In Example 8, sulfoxonium ylide probes as prepared in accordance with Example 1 were applied to live RAW264.7 cells for two hours, in order to examine the potency and permeability of the sulfoxonium ylide probe series in living cells, and the results compared to BMV109.
The sulfoxonium ylide probes (and BMV109) were each added with increasing probe concentrations of 0.1 µM, 0.5 µM, 1 µM and 5 µM for 2 hours. […]

cathepsin X [6] = molecular target: T1, cathepsin X; test: Probe labeling of RAW264.7 cell lysates, SDS-PAGE in-gel fluorescence; type: biochemical; design: protein lysates prepared from RAW264.7 cells; host or cells: RAW264.7
Method: ells were harvested by scraping, washed once with PBS, and resuspended in lysis buffer containing 50 mM citrate [pH 5.5], 0.5% CHAPS, 0.1% Triton X-100, and 4 mM DTT. Cells were incubated on ice for at least 10 minutes with intermittent vortexing followed by centrifugation ([…] at 4° C. or 5 minutes). Cleared supernatants were then transferred to a fresh tube and protein concentration was determined by BCA. Total protein (50 µg) was aliquoted into tubes in a final volume of 20 µl lysis buffer. Where indicated, JPM-OEt or MDV-590 were added from a 100x DMSO stock and incubated at 37° C. or 20 minutes prior to probe addition. The indicated concentration of probe was added from a 100x DMSO stock. Labeling was carried out at 37° C. or 20 minutes (unless otherwise indicated), and the reactions were quenched by the addition of 5x sample buffer (200 mM Tris-Cl [pH 6.8], 8% SDS, 0.04% bromophenol blue, 5% b-mercaptoethanol, and 40% glycerol). Samples were then boiled for five minutes and proteins were resolved on a 15% SDS-PAGE gel. The gels were scanned on a Typhoon 5 flatbed laser scanner at 633/670 nm excitation/emission to detect sCy5 fluorescence.
robe-labeled lysate from above (in sample buffer) was divided into input or pulldown (~50 µg total protein each). The input sample was stored at -20° C. The pulldown sample was diluted in 500 µl IP buffer (PBS [pH 7.4],[…], 1 mM EDTA). Goat anti-cathepsin X antibody (10 µl) was added along with 40 µl slurry of pre-washed Protein A/G agarose beads. Samples were rotated overnight at 4° C. Beads were then washed four times with IP buffer followed by a final wash in 0.9% NaCl. Beads were then resuspended in 2x sample buffer and boiled. The pulldown supernatants, alongside the input samples, were analysed by fluorescent SDS-PAGE as above.
In Example 3, the sulfoxonium ylide probe sCy5-Val-SY was incubated with protein lysates prepared from RAW264.7 cells, an immortalized mouse macrophage line that contains high levels of active cysteine cathepsins (Verdoes et al., 2013). Cells were lysed in citrate buffer (pH 5.5) to provide optimal conditions for cathepsin activation, and the probe was added • at 1 µM for 20 minutes • at various concentrations (0 µM, 0.01 µM, 0.05 µM, 0.1 µM, 0.5 µM or 1 µM) for 20 minutes; or • at 1 µM for varying times (0, 1, 2, 5, 10, 20, and 30 minutes).
Then the lysates were resolved by SDS-PAGE and the gel scanned for sCy5 fluorescence using a flatbed laser scanner.
The labeling profile of sCy5-Val-SY was compared to that of BMV109, the pan-cathepsin probe, by repeating the above experiment using BMV109 as the probe added at 1 µM for 20 minutes.
In Example 6, a small library of sulfoxonium ylide probes with varying amino acids in the P1 position as prepared in accordance with Example 1 was tested in RAW264.7 lysates, and compared to BMV109. Each probe was added with increasing probe concentrations of 0.01 µM, 0.05 µM, 0.1 µM, 0.5 µM, 1 µM and 5 µM for 20 minutes).

cathepsin X [7] = molecular target: cathepsin X (Homo sapiens, UniProt Q9UBR2); test: Probe labeling of live MDA-MB-231 HM cells, in-gel fluorescence; type: cell-based; design: cathepsin X in a human breast cancer line known to express very low levels of cathepsin S; host or cells: MDA-MB-231 HM; details: 0.1-5 µM, overnight incubation
Method: AW cells or MDA-MB-231 ^HM cells were plated in 12-well plates. Where indicated, MDV-590 or vehicle was added at 10 µM from a 10 mM DMSO stock for overnight incubation. When the cell density reached 80%, the indicated probes were added at the indicated concentrations from a 1000x DMSO stock and allowed to incubate for the indicated time. Media was then removed and replaced with PBS. The cells were then scraped and transferred to tubes, and lysis and SDS-PAGE analysis were carried out as above, except skipping the probe addition step.
In Example 9, the specificity of the sulfoxonium ylide probes for cathepsin X in a human breast cancer line known to express very low levels of cathepsin S, MDA-MB-231 ^HM (Chang et al., 2007) was tested, and the results compared to BMV109. The MDA-MB-231 ^HM cells also allowed to test whether the sulfoxonium ylide probes could bind to human cathepsin X (in addition to mouse cathepsin X shown previously).
The sulfoxonium ylide probes (and BMV109) were each added with increasing probe concentrations of 0.1 µM, 0.5 µM, 1 µM and 5 µM).

[8] = Example 6, 0.01-5 µM for 20 minutes

T1 sequence (Q9WUU7 64-306): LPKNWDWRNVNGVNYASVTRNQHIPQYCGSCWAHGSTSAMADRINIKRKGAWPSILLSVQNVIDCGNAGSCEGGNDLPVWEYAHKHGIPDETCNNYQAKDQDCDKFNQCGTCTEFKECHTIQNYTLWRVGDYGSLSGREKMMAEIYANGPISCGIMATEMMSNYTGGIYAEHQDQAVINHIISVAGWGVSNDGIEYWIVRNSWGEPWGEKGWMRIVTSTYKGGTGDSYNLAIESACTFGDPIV
Sequence of cathepsin X (Homo sapiens, UniProt Q9UBR2) (Q9UBR2 62-303): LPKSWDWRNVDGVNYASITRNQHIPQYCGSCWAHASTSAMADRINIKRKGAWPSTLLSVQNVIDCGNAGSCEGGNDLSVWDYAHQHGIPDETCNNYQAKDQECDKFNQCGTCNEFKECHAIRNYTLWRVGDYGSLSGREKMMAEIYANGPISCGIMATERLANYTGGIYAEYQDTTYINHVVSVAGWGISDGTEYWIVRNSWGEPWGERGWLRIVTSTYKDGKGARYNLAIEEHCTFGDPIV

Compound: CC(C)[C@H](NC(=O)OC(C)(C)C)C(=O)C=S(C)(C)=O [Boc-Val-SY, tert-butyl (S)-(1-(dimethyl(oxo)-λ^6-sulfanylidene)-4-methyl-2-oxopentan-3-yl)carbamate]
reduction in cathepsin S (cathepsin S): 51%
reduction in cathepsin X (cathepsin X [3]): 71%

Compound: CC[N+]1=C(/C=C/C=C/C=C2/N(CCCCCC(=O)N[C@@H](CC(C)C)C(=O)C=S(C)(C)=O)c3ccc(S(=O)(=O)O)cc3C2(C)C)C(C)(C)c2cc(S(=O)(=O)[O-])ccc21 [sCy5-Leu-SY]
potency and specificity of labeling in kidney lysates (cathepsin X [4]): the most potency and specificity for cathepsin X
cathepsins labeled in live RAW264.7 cells (cathepsin X [5]): labeled cathepsin X and S to similar extents and with similar potency

Compound: CCCC[C@H](NC(=O)CCCCN1/C(=C/C=C/C=C/C2=[N+](CC)c3ccc(S(=O)(=O)[O-])cc3C2(C)C)C(C)(C)c2cc(S(=O)(=O)O)ccc21)C(=O)COC(=O)c1c(C)cccc1C [sCy5-Nle-AOMK]
labeling of cathepsin S, B and L in tissues after in vivo administration (cathepsin X [2]): Only weak labeling of cathepsin B and S was observed in the colon, but not in other tissues examined

Compound: CC[N+]1=C(/C=C/C=C/C=C2/N(CCCCCC(=O)N[C@@H](Cc3c[nH]c4ccccc34)C(=O)C=S(C)(C)=O)c3ccc(S(=O)(=O)O)cc3C2(C)C)C(C)(C)c2cc(S(=O)(=O)[O-])ccc21 [sCy5-Trp-SY]
cathepsins labeled in live RAW264.7 cells (cathepsin X [5]): labeled cathepsin X and S to similar extents and with similar potency

Compound: JPM-OEt [reference compound]
competition for sCy5-Val-SY labeling by inhibitor pretreatment (cathepsin X [6]; RAW264.7 lysates pretreated with 10 µM inhibitor, then sCy5-Val-SY 1 µM 20 minutes): labeling was prevented

Now from value to compound, other results behind:

labeling of cathepsin S, B and L in tissues after in vivo administration (cathepsin X [2]): strongly labels cathepsin B and L
Compound: CC[N+]1=C(/C=C/C=C/C=C2\N(CCCCCC(=O)NCCCC[C@H](NC(=O)[C@H](Cc3ccccc3)NC(=O)OCc3ccccc3)C(=O)COc3c(F)c(F)c(C(=O)NCCNC(=O)C4CCN(S(=O)(=O)c5ccccc5-c5c6ccc(N7CCc8cc(S(=O)(=O)[O-])ccc87)cc6[o+]c6cc(N7CCc8cc(S(=O)(=O)O)ccc87)ccc56)CC4)c(F)c3F)c3ccc(S(=O)(=O)O)cc3C2(C)C)C(C)(C)c2cc(S(=O)(=O)[O-])ccc21 [BMV109, reference compound]
labeling in splenic lysates from wildtype mice (cathepsin X [1]): strongly labeled cathepsin B and to a lesser extent, cathepsin S and L

potency and specificity of labeling in kidney lysates (cathepsin X [4]): broader reactivity
Compound: CC[N+]1=C(/C=C/C=C/C=C2/N(CCCCCC(=O)N[C@@H](Cc3ccccc3)C(=O)C=S(C)(C)=O)c3ccc(S(=O)(=O)O)cc3C2(C)C)C(C)(C)c2cc(S(=O)(=O)[O-])ccc21 [sCy5-Phe-SY]
cathepsins labeled in live RAW264.7 cells (cathepsin X [5]): labeled cathepsin X and S to similar extents and with similar potency

potency and specificity of labeling in kidney lysates (cathepsin X [4]): broader reactivity
cathepsins labeled in live RAW264.7 cells (cathepsin X [5]): preference for cathepsin S
Compound: CC[N+]1=C(/C=C/C=C/C=C2/N(CCCCCC(=O)NCCCC[C@H](NC(=O)OCc3ccccc3)C(=O)C=S(C)(C)=O)c3ccc(S(=O)(=O)O)cc3C2(C)C)C(C)(C)c2cc(S(=O)(=O)[O-])ccc21 [Cbz-Lys(sCy5)-SY]
specificity of labeling in RAW264.7 lysates (cathepsin X [6]; [8]): loss of specificity, favoring cathepsin S over X and B
cross-reactivity with cathepsin B and L in live MDA-MB-231 HM cells (cathepsin X [7]): the most cross-reactivity with cathepsin B and L

potency and specificity of labeling in kidney lysates (cathepsin X [4]): broader reactivity
specificity of labeling in RAW264.7 lysates (cathepsin X [6]; [8]): loss of specificity
Compound: CC[N+]1=C(/C=C/C=C/C=C2/N(CCCCCC(=O)N[C@@H](Cc3ccccc3)C(=O)N[C@H](C(=O)C=S(C)(C)=O)C(C)C)c3ccc(S(=O)(=O)O)cc3C2(C)C)C(C)(C)c2cc(S(=O)(=O)[O-])ccc21 [sCy5-Phe-Val-SY]
potency of labeling in RAW264.7 lysates (cathepsin X [6]; [8]): improved potencies for cathepsin X and S compared to BMV109
cathepsins labeled in live RAW264.7 cells (cathepsin X [5]): labeled cathepsin B and L in addition to cathepsin X and S
cross-reactivity with cathepsin B and L in live MDA-MB-231 HM cells (cathepsin X [7]): the most cross-reactivity with cathepsin B and L
